{"source": "patent US20240287066A1", "about": "“Crystalline Form of Sotorasib” (Sandoz AG, priority 2021, published 2024)", "key": {"[1]": {"experiment": "Powder dissolution in acetate buffer pH 4.5 and phosphate buffer pH 6.8", "type": "physicochemical", "details": "for phase change by PXRD during the dissolution experiments: acetate buffer pH 4.5 and phosphate buffer pH 6.8, 37° C., up to 24 hours; for solubility compared to crystalline Form I (in words): 15 minutes to 24 hours", "description": "Powder dissolution experiments were carried out at a temperature of 37° C. in acetate buffer pH 4.5 and phosphate buffer pH 6.8 for the crystalline Form I of sotorasib disclosed in WO 2020/236947 A1 and the crystalline Form A of sotorasib of the present invention. Particle sizes of both forms were kept as similar as possible to allow for proper comparison. The respective concentrations were determined at a wavelength of 293 nm in case of the acetate buffer and at 354 nm in case of the phosphate buffer."}, "[2]": {"details": "cited from earlier work; for Mass increase from 0-90% RH at 25° C.: GMS, data from paragraph [0334] on page 46 of WO 2020/236947 A1; for hygroscopic behaviour (in words): GMS data of WO 2020/236947 A1, 0-90% RH, 25° C."}, "[3]": {"experiment": "Gravimetric moisture sorption (GMS) of sotorasib Form A", "type": "physicochemical", "description": "Gravimetric moisture sorption was performed with an SPSx-1μ moisture sorption analyzer (ProUmid, Ulm). The measurement cycle was started at ambient relative humidity (RH) of 40%. RH was then decreased to 5% in 5% steps, followed by a further decrease to 3% and to 0%. […] Finally, RH was increased to ambient relative humidity of 40% in 5% steps. The time per step was set to a minimum of 2 hours and a maximum of 6 hours. If an equilibrium condition with a constant mass of ±0.01% within 1 hour was reached before the maximum time for all examined samples the sequential humidity step was applied before the maximum time of 6 hours. If no equilibrium was achieved the consecutive humidity step was applied after the maximum time of 6 hours. The temperature was (25±0.1)° C."}, "[4]": {"experiment": "Stress stability (temperature and humidity stress, PXRD read-out)", "type": "physicochemical", "details": "for solid form by PXRD after stress storage: 30 weeks, open stored in glass vials", "description": "Sotorasib Form A of the present invention was subjected to various temperature and humidity stress conditions for 30 weeks as outlined in Table 3 below. The samples were open stored in glass vials."}}, "note": "Read-outs that look alike come from different tables or passages of the source."}
{"compound": "C=CC(=O)N1CCN(c2nc(=O)n(-c3c(C)ccnc3C(C)C)c3nc(-c4c(O)cccc4F)c(F)cc23)[C@@H](C)C1", "note": "[Form I of WO 2020/236947 A1, 6-fluoro-7-(2-fluoro-6-hydroxyphenyl)-1-(4-methyl-2-(2-propanyl)-3-pyridinyl)-4-((2S)-2-methyl-4-(2-propenoyl)-1-piperazinyl)pyrido[2,3-d]pyrimidin-2(1H)-one]", "values": [{"measurement": "phase change by PXRD during the dissolution experiments", "setting": "[1]", "value": "no phase changes occurred"}, {"measurement": "Mass increase from 0-90% RH at 25° C.", "setting": "[2]", "value": "+0.5-1.0% ^"}, {"measurement": "Mass increase from 0-90% RH at 25° C.", "setting": "[2]; listed as Form I", "value": "0.5-1.0%"}]}
{"compound": "C=CC(=O)N1CCN(c2nc(=O)n(-c3c(C)ccnc3C(C)C)c3nc(-c4c(O)cccc4F)c(F)cc23)[C@@H](C)C1", "note": "[Form II of WO 2020/236947 A1, 6-fluoro-7-(2-fluoro-6-hydroxyphenyl)-1-(4-methyl-2-(2-propanyl)-3-pyridinyl)-4-((2S)-2-methyl-4-(2-propenoyl)-1-piperazinyl)pyrido[2,3-d]pyrimidin-2(1H)-one]", "values": [{"measurement": "hygroscopic behaviour (in words)", "setting": "[2]", "value": "hygroscopic"}, {"measurement": "Mass increase from 0-90% RH at 25° C.", "setting": "[2]", "value": "+2-2.5%^"}]}
{"compound": "C=CC(=O)N1CCN(c2nc(=O)n(-c3c(C)ccnc3C(C)C)c3nc(-c4c(O)cccc4F)c(F)cc23)[C@@H](C)C1", "note": "[Form III of WO 2020/236947 A1, 6-fluoro-7-(2-fluoro-6-hydroxyphenyl)-1-(4-methyl-2-(2-propanyl)-3-pyridinyl)-4-((2S)-2-methyl-4-(2-propenoyl)-1-piperazinyl)pyrido[2,3-d]pyrimidin-2(1H)-one]", "values": [{"measurement": "hygroscopic behaviour (in words)", "setting": "[2]", "value": "hygroscopic"}, {"measurement": "Mass increase from 0-90% RH at 25° C.", "setting": "[2]", "value": "+7.0%"}]}
{"compound": "C=CC(=O)N1CCN(c2nc(=O)n(-c3c(C)ccnc3C(C)C)c3nc(-c4c(O)cccc4F)c(F)cc23)[C@@H](C)C1", "note": "[Sotorasib Form A, 6-fluoro-7-(2-fluoro-6-hydroxyphenyl)-1-(4-methyl-2-(2-propanyl)-3-pyridinyl)-4-((2S)-2-methyl-4-(2-propenoyl)-1-piperazinyl)pyrido[2,3-d]pyrimidin-2(1H)-one]", "values": [{"measurement": "hygroscopic behaviour (in words)", "setting": "[3]; GMS, 0-90% RH, 25° C.", "value": "slightly hygroscopic"}, {"measurement": "mass difference in the sorption cycle between 0 and 90% RH", "setting": "[3]; GMS, 0-90% RH, (25±0.1)° C.", "value": "about 0.4 w-%"}, {"measurement": "Mass increase from 0-90% RH at 25° C.", "setting": "[3]; GMS, data from FIG. 4 of present invention", "value": "+0.4%"}, {"measurement": "PXRD of the sample after the GMS experiment", "setting": "[3]; after sorption/desorption cycle 0-90% RH, 25° C.", "value": "same PXRD"}, {"measurement": "solid form by PXRD after stress storage", "setting": "[4]; 25° C./60% RH", "value": "Form A"}, {"measurement": "solid form by PXRD after stress storage", "setting": "[4]; 30° C./65% RH", "value": "Form A"}, {"measurement": "solid form by PXRD after stress storage", "setting": "[4]; 40° C./75% RH", "value": "Form A"}, {"measurement": "solid form by PXRD after stress storage", "setting": "[4]; RT/0% RH", "value": "Form A"}, {"measurement": "solid form by PXRD after stress storage", "setting": "[4]; RT/97% RH", "value": "Form A"}, {"measurement": "phase change by PXRD at any stress condition", "setting": "[4]; all temperature and humidity stress conditions of Table 3, 30 weeks", "value": "no phase change occurred"}, {"measurement": "solubility compared to crystalline Form I (in words)", "setting": "[1]; acetate buffer pH 4.5, 37° C., FIG. 5", "value": "significantly increased solubility"}, {"measurement": "equilibrium solubility after 24 hours compared to crystalline Form I", "setting": "[1]; acetate buffer pH 4.5, 37° C.", "value": "about 3 fold"}, {"measurement": "phase change by PXRD during the dissolution experiments", "setting": "[1]", "value": "no phase changes occurred"}, {"measurement": "solubility compared to crystalline Form I (in words)", "setting": "[1]; phosphate buffer pH 6.8, 37° C., FIG. 6", "value": "significantly increased solubility"}, {"measurement": "equilibrium solubility after 24 hours compared to crystalline Form I", "setting": "[1]; phosphate buffer pH 6.8, 37° C.", "value": "about 2 fold"}]}
